Experimental data taken from PubChem BioAssay (NCI).
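A five-concentration, 48-hour dose response in 96-well plates underlies each endpoint, interpolated linearly between surrounding concentrations. At the GI50, growth is halved. TGI marks complete inhibition of growth.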

Legend:
Test in all cases: growth of human tumour cells (NCI), 48 h
MDA-MB-231 breast = tested on: MDA-MB-231 breast
786-0 renal = tested on: 786-0 renal
SNB-78 CNS = tested on: SNB-78 CNS
DMS 114 small cell lung = tested on: DMS 114 small cell lung
MDA-N = tested on: MDA-N

Which results are given for `COc1cc(/C=C2\C(=O)Nc3ccc(O)cc32)cc(OC)c1OC`?
GI50 (MDA-MB-231 breast): 8.06 µM; TGI (MDA-MB-231 breast): 37 µM

What does the source list for `CS(=O)(=O)Sc1ccc(Cl)cc1`?
TGI (786-0 renal): 19.2 µM; TGI (SNB-78 CNS): 15.6 µM

How did the GI50 (MDA-MB-231 breast) turn out when `O[C@@H]1CCCCN1Cc1cc2cc3c(cc2c2cc(OCc4ccccc4)ccc12)OCO3` was run?
The GI50 was 1.75 µM.

What about the TGI (MDA-MB-231 breast) of the same compound?
The TGI was 3.33 µM.

Which TGI (786-0 renal) does the source give for `CCCCCCCCCCCCOC(=N)N1CCOCC1` here?
Its TGI is 28.4 µM.

And the TGI (DMS 114 small cell lung)?
The TGI was 19.7 µM.

And the TGI (SNB-78 CNS)?
The TGI was 27.8 µM.

How did the TGI (MDA-N) turn out when `Nc1ccc(Oc2ccc(C3(c4ccc(Oc5ccc(N)c(O)c5)cc4)C4CC5CC(C4)CC3C5)cc2)cc1O` was run?
The TGI was 4.75 µM.

`O=c1cc(O)c1=O` was tested. Which TGI (MDA-N) did it give?
Its TGI is greater than 100 µM.

`CC(C)OP(=O)(OC(C)C)C(=Nc1ccc(N=C(NNc2ccc([N+](=O)[O-])cc2)P(=O)(OC(C)C)OC(C)C)cc1)NNc1ccc([N+](=O)[O-])cc1` was tested. Which TGI (DMS 114 small cell lung) did it give?
Its TGI is greater than 100 µM.
